pEC50: −log10 of the molar value.
Legend:
human GR [1] = target: T1, human GR (Homo sapiens, UniProt P04150); assay: Trans-Activation Modulation of Glucocorticoid Receptor (GRAMMER), MMTV-LUC reporter gene; assay type: cell-based; parameters: endogenous in cells; conditions: for Emax: A549, read-out: Transactivation A549 Cells GRAMMER Emax (%); for pEC50: Table 1, A549 cells, IP = inflection point, read-out: Transactivation A549 Cells GRAMMER IP
T1 sequence (P04150 1-777): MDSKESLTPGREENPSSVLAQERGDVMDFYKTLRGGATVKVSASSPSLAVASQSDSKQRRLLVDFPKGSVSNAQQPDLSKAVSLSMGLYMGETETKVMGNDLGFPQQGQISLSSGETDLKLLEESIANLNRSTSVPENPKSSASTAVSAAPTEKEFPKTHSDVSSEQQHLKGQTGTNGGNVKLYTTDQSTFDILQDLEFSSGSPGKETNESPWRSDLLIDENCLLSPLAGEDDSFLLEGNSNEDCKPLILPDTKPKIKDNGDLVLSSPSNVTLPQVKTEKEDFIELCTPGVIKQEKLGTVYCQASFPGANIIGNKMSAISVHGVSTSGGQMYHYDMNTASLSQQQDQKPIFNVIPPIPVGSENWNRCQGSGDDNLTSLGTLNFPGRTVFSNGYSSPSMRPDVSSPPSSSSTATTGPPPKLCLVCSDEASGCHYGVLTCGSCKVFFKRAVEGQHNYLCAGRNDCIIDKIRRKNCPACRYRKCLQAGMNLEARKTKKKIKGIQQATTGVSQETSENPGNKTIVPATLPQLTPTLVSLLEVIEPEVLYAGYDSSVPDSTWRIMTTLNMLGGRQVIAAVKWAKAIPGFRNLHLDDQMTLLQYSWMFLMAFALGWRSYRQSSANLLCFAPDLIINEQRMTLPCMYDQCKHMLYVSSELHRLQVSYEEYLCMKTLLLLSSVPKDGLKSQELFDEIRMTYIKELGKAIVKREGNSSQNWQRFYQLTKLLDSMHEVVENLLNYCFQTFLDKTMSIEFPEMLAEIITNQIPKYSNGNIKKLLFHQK

human GR [2] = target: T1, human GR; assay: Transrepression Assay (GITAR), TNFα-β-lactamase reporter gene in U937 cells; assay type: cell-based; parameters: U937 cells contain an endogenous glucocorticoid receptor (GR); endogenous in cells; host or cells: U937 cells stably transfected with the TNF-α promoter/β-lactamase reporter only; conditions: for pEC50: IP = inflection point, read-out: Transrepression U937 Cells GITAR IP; for GITAR > GRAMM % SEP: separation of GITAR Emax over GRAMMER Emax; for Emax: U-937
Summary of the method: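 Reporter readout used CCF2-AM loading for 70–90 min at room temperature after overnight (~18 h, 37 °C) PMA (5 ng/ml final) and LPS (100 ng/ml final) stimulation of compound-treated (30–45 min) TNFα-β-lactamase U937 cells expressing native GR. Activity was normalised to 100 nM dexamethasone repression.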

[3] = 100 nM dexamethasone = 100% activity, read-out: maximal activity in the transrepression assay
[4] = Table 1, U937 cells, activity repressed by 100 nM dexamethasone = 100%, read-out: Transrepression U937 Cells GITAR Emax (%)

| SMILES | Emax (human GR [1]) | pEC50 (human GR [1]) | pEC50 (human GR [2]; Table 1, U937 cells) | GITAR > GRAMM % SEP (human GR [2]; Table 1) | Emax (human GR [2]; [3]) | Emax (human GR [2]; [4]) |
| --- | --- | --- | --- | --- | --- | --- |
| C[C@]12Cc3cnn(-c4ccc(F)c(F)c4)c3C=C1CC[C@@]2(O)CCc1cccc(F)c1C(N)=O [Example 168, 2-{2-[(4α,5R)-1-(3,4-difluorophenyl)-5-hydroxy-4α-methyl-1,4,4α,5,6,7-hexahydrocyclopenta[f]indazol-5-yl]ethyl}-6-fluorobenzamide] | 58% | 7.28 | 7.28 | 19% | 5 to 100% | 77% |
| C[C@]12Cc3cnn(-c4ccc(F)cc4)c3C=C1CC[C@@]2(O)CCc1ccc(Cl)cc1C(N)=O [Example 170, 5-chloro-2-{2-[(4αS,5R)-1-(4-fluorophenyl)-5-hydroxy-4α-methyl-1,4,4α,5,6,7-hexahydrocyclopenta[f]indazol-5-yl]ethyl}benzamide] | 24% | 6.63 | 6.65 | 42% | 5 to 100% | 66% |
| C[C@]12Cc3cnn(-c4ccc(F)c(F)c4)c3C=C1CC[C@@]2(O)CCc1ccccc1C(N)=O [Example 172, 2-{2-[(4αS,5R)-1-(3,4-difluorophenyl)-5-hydroxy-4α-methyl-1,4,4α,5,6,7-hexahydrocyclopenta[f]indazol-5-yl]ethyl}benzamide] | 41% | 6.79 | 6.86 | 36% | 5 to 100% | 78% |
| Cc1ccc(C(N)=O)c(CC[C@]2(O)CCC3=Cc4c(cnn4-c4ccc(F)cc4)C[C@@]32C)c1 [Example 174, 2-{2-[(4αS,5R)-1-(4-fluorophenyl)-5-hydroxy-4α-methyl-1,4,4α,5,6,7-hexahydrocyclopenta[f]indazol-5-yl]ethyl}-4-methylbenzamide] | 36% | 6.83 | 6.74 | 41% | 5 to 100% | 77% |
| C[C@]12Cc3cnn(-c4ccc(Cl)cc4)c3C=C1CC[C@@]2(O)CCc1cccc(F)c1C(N)=O [Example 185, 2-{2-[(4αS,5R)-1-(4-chlorophenyl)-5-hydroxy-4α-methyl-1,4,4α,5,6,7-hexahydrocyclopenta[f]indazol-5-yl]ethyl}-6-fluorobenzamide] | 39% | 6.84 | 7.23 | 41% | 5 to 100% | 80% |
| COc1cccc(CC[C@]2(O)CCC3=Cc4c(cnn4-c4ccc(F)cc4)C[C@@]32C)c1C(N)=O [Example 189, 2-{2-[(4αS,5R)-1-(4-fluorophenyl)-5-hydroxy-4α-methyl-1,4,4α,5,6,7-hexahydrocyclopenta[f]indazol-5-yl]ethyl}-6-methoxybenzamide] | 49% | 7.55 | 7.64 | 31% | 5 to 100% | 80% |
| Cc1cccc(CC[C@]2(O)CCC3=Cc4c(cnn4-c4cccc(F)c4)C[C@@]32C)c1C(N)=O [Example 191, 2-{2-[(4αS,5R)-1-(3-fluorophenyl)-5-hydroxy-4α-methyl-1,4,4α,5,6,7-hexahydrocyclopenta[f]indazol-5-yl]ethyl}-6-methylbenzamide] | 49% | 7.26 | 7.48 | 29% | 5 to 100% | 78% |
| C[C@]12Cc3cnn(-c4ccc(F)cc4)c3C=C1CC[C@@]2(O)CCc1cccc(F)c1CC(N)=O [Example 194, 2-(2-fluoro-6-{2-[(4αS,5R)-1-(4-fluorophenyl)-5-hydroxy-4α-methyl-1,4,4α,5,6,7-hexahydrocyclopenta[f]indazol-5-yl]ethyl}phenyl)acetamide] | 38% | 7.00 | 7.06 | 41% | 5 to 100% | 78% |
| C[C@]12Cc3cnn(-c4ccc(F)cc4)c3C=C1CC[C@@]2(O)CCc1cccc(Cl)c1CC(N)=O [Example 197, 2-(2-chloro-6-{2-[(4αS,5R)-1-(4-fluorophenyl)-5-hydroxy-4α-methyl-1,4,4α,5,6,7-hexahydrocyclopenta[f]indazol-5-yl]ethyl}phenyl)acetamide] | 46% | 6.60 | 6.86 | 21% | 5 to 100% | 67% |
| CCC(O)(C(N)=O)c1ccccc1CC[C@]1(O)CCC2=Cc3c(cnn3-c3ccc(F)cc3)C[C@@]21C (stereo partly drawn) [Example 199, 2-(2-{2-[(4αS,5R)-1-(4-fluorophenyl)-5-hydroxy-4α-methyl-1,4,4α,5,6,7-hexahydrocyclopenta[f]indazol-5-yl]ethyl}phenyl)-2-hydroxybutanamide] | 36% | 7.08 | 7.11 | 32% | 5 to 100% | 68% |
| CC(C)C(O)(C(N)=O)c1ccccc1CC[C@]1(O)CCC2=Cc3c(cnn3-c3ccc(F)cc3)C[C@@]21C (stereo partly drawn) [Example 201, 2-(2-{2-[(4αS,5R)-1-(4-fluorophenyl)-5-hydroxy-4α-methyl-1,4,4α,5,6,7-hexahydrocyclopenta[f]indazol-5-yl]ethyl}phenyl)-2-hydroxy-3-methylbutanamide] | 40% | 7.33 | 7.40 | 38% | 5 to 100% | 78% |

Reference: patent US8119681B2, “2-[1-phenyl-5-hydroxy or methoxy-4alpha-methyl-hexahydrocyclopenta [ƒ]indazole-5-YL]ethyl phenyl derivatives as glucocorticoid receptor ligands” (Merck Sharp & Dohme Corp., priority 2006, dated 2012)
